This note sets out measurements from patent US20110269219A1, “Method for increasing algae growth and the use thereof in production of algae-derived biofuels and other chemical” (GST Growth, LLC, priority 2010, published 2011).

The test system of this test is Protococcus. As to the kind of experiment: Growth of Protococcus liquid cultures monitored at Absorbance 550 nm. Conditions: Protococcus in water. It counts as cell-based. The source says: Liquid cultures were established in the laboratory from the algae specimens collected to include three experimental treatments, which were: A control of Protococcus in water; • 1). Protococcus in water supplemented with 0.5% methanol, which is known to stimulate growth of PPFM bacteria; and • 2) Protococcus in water supplemented with a Vitamin B12 overproducing PPFM. The growth of the cultures was monitored at Absorbance 550 nm with the results below in Table 2 being obtained: […]

With `CO` [Methanol, methanol], the A550 nm by setting is: (After One Week) 0.094; (After Two Weeks) 0.085; (Start) 0.069.
